Reference: patent US20260137697A1, “THIAZOLO[5,4-D]PYRIMIDINE COMPOUNDS, COMPOSITIONS COMPRISING THEM AND USES THEREOF” (University de Montreal, priority 2022, published 2026)

Assays:
[1] = system: pERK, HCT116 cells; test: Phospho-ERK inhibition, AlphaLISA p-ERK 1/2, HCT-116; assay type: cell-based, human; settings: Table 3; for IC50: HCT116 cells (KRAS G13D), 1 h treatment; for HCT116 pERK (Ymin %): lowest % inhibition value of the pERK IC50 curve, above −20% = no paradoxical induction
Summary of the method: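 Cells in RPMI-1640 with 5% FBS plated overnight, then treated 1 h with ten-point dilutions (10 μM to 0.33 nM, 0.5% DMSO). Lysate p-ERK1/2 (Thr202/Tyr204) read by AlphaLISA SureFire Ultra; % inhibition normalised to DMSO and 1 μM trametinib background, IC50 by four-parameter fit.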

[2] = target: T1, BRAF (Homo sapiens, UniProt P15056); test: BRAF kinase activity assay (ADP-Glo); assay type: biochemical; settings: Table 3; 10 μM ATP, kinase-dead MEK1 substrate
T1 construct: GST; purchased Millipore Sigma B4062-10UG
Summary of the method: (§1)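 GST-tagged kinase (0.375 nM) with 75 nM kinase-dead MEK1 and 10 μM ATP in HEPES pH 7.5 buffer, 2 h at 30° C, nine concentrations 100–0.01 nM, 0.05% DMSO. ADP-Glo luminescence; % inhibition vs DMSO and substrate-only blanks, IC50 by four-parameter fit.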

[3] = target: T2, CRAF (Homo sapiens, UniProt P04049); test: CRAF kinase activity assay (ADP-Glo); assay type: biochemical; settings: Table 3; 10 μM ATP, kinase-dead MEK1 substrate
T2 construct: fused on or other part: GST tag (N-terminal according to the vendor's product)
Summary of the method: as §1

T1 sequence (P15056 whole entry): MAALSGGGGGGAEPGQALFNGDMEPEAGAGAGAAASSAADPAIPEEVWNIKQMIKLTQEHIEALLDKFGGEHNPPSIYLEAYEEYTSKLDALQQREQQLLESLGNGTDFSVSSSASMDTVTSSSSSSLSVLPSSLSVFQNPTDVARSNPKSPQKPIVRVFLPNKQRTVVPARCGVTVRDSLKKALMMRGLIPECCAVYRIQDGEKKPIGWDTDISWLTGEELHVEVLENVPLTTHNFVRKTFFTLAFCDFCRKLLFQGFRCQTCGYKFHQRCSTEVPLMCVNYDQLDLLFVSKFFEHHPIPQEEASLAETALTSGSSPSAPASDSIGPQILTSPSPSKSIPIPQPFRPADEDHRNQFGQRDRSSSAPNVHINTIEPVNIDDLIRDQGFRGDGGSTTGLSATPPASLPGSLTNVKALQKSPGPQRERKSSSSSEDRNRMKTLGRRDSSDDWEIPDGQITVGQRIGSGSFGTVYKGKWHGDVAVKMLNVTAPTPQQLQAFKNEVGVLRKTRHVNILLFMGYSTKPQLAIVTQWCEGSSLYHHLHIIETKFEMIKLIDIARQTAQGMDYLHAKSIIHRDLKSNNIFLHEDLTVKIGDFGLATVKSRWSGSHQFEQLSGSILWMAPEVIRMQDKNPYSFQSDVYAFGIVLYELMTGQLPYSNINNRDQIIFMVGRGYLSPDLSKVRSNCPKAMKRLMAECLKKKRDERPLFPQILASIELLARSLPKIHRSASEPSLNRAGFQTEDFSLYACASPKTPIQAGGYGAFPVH
T2 sequence (P04049 whole entry Y340E/Y341E, form open, the tested form may be a part): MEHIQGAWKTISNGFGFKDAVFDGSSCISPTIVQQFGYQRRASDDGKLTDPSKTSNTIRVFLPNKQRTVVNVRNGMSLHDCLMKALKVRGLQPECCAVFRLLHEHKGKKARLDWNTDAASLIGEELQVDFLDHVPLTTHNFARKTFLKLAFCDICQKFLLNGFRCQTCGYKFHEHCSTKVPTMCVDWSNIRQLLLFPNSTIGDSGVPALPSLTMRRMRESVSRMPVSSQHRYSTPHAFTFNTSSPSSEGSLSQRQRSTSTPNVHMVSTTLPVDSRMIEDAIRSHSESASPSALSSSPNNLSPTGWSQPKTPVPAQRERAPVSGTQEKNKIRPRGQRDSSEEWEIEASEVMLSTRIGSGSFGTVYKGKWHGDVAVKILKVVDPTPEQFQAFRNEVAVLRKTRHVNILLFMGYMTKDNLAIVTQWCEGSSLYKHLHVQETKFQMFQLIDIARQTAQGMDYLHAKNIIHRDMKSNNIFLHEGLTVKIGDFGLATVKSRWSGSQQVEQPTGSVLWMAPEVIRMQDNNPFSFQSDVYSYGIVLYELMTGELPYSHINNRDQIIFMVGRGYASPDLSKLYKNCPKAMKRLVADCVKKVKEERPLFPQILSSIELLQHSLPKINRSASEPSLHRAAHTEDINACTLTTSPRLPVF

Row | Compound | IC50 [1] [nM] | IC50 [2] [nM] | IC50 [3] [nM] | IC50 ([1]; Homo sapiens, HCT-116) [nM] | HCT116 pERK (Ymin %) [1] [%]
1 | O=S(=O)(CC1CCOCC1)c1cn(-c2nc3c(Nc4c(F)ccc(NS(=O)(=O)c5cccc(Cl)c5Cl)c4F)ncnc3s2)c2ccccc12 [Example 65] | 500 to 1000 | 1 to 10 | 10 to 50 | – | −3
2 | CN(Cc1cccnc1)C(=O)c1cn(-c2nc3c(Nc4c(F)ccc(NS(=O)(=O)c5cccc(Cl)c5Cl)c4F)ncnc3s2)c2ccccc12 [Example 46] | < 500 | 1 to 10 | < 10 | – | 1
3 | O=C(c1cn(-c2nc3c(Nc4c(F)ccc(NS(=O)(=O)c5cccc(Cl)c5Cl)c4F)ncnc3s2)c2ccccc12)N1C2CCC1COC2 [Example 51] | < 500 | < 1 | < 10 | – | −1
4 | COCCN(C)C(=O)c1nn(-c2nc3c(Nc4c(F)ccc(NS(=O)(=O)c5cccc(F)c5C)c4F)ncnc3s2)c2ccccc12 [Example 26] | 1000 to 10000 | > 10 | > 50 | – | −13
5 | O=S(=O)(Nc1ccc(F)c(Nc2ncnc3sc(-n4cnc5c(F)c(F)ccc54)nc23)c1F)c1cccc(Cl)c1Cl [Example 49] | – | 1 to 10 | < 10 | 500 to 1000 | –
6 | Cc1c(F)cccc1S(=O)(=O)Nc1ccc(F)c(Nc2ncnc3sc(-n4nc(C(=O)N(C)Cc5cccnc5)c5ccccc54)nc23)c1F [Example 23] | – | > 10 | > 50 | 1000 to 10000 | –
7 | Cc1c(F)cccc1S(=O)(=O)Nc1ccc(F)c(Nc2ncnc3sc(-n4cc(C(=O)NCc5cccnc5)c5ccccc54)nc23)c1F [Example 29] | 500 to 1000 | > 10 | > 50 | – | 5
8 | O=S(=O)(Nc1ccc(F)c(Nc2ncnc3sc(-n4cnc5ccccc54)nc23)c1F)c1ccccc1Cl [Example 37] | < 500 | 1 to 10 | < 10 | – | −11
9 | COc1ccc(S(=O)(=O)Nc2ccc(F)c(Nc3ncnc4sc(-n5cnc6c(N)cccc65)nc34)c2F)c(C)c1F [Example 15] | < 500 | 1 to 10 | 10 to 50 | – | −3
10 | CN1CC2CCC(C1)N2C(=O)c1cn(-c2nc3c(Nc4c(F)ccc(NS(=O)(=O)c5cccc(Cl)c5Cl)c4F)ncnc3s2)c2ccccc12 [Example 56] | < 500 | < 1 | < 10 | – | 0
11 | Cc1c(F)cccc1S(=O)(=O)Nc1ccc(F)c(Nc2ncnc3sc(-n4cc(C(=O)N(C)CCc5ccccn5)c5ccccc54)nc23)c1F [Example 28] | – | 1 to 10 | 10 to 50 | < 500 | –
12 | O=S(=O)(Nc1ccc(F)c(Nc2ncnc3sc(-n4cnc5ccccc54)nc23)c1F)c1cccc(Cl)c1Cl [Example 4, N-[3-[[2-(benzimidazol-1-yl)thiazolo[5,4-d]pyrimidin-7-yl]amino]-2,4-difluoro-phenyl]-2,3-dichloro-benzenesulfonamide] | – | 1 to 10 | < 10 | 500 to 1000 | –
13 | CCS(=O)(=O)c1cn(-c2nc3c(Nc4c(F)ccc(NS(=O)(=O)c5cccc(Cl)c5Cl)c4F)ncnc3s2)c2ccccc12 [Example 63] | < 500 | 1 to 10 | 10 to 50 | – | −5
14 | Cc1c(F)cccc1S(=O)(=O)Nc1ccc(F)c(Nc2ncnc3sc(-n4cnc5c(F)cccc54)nc23)c1F [Example 35] | < 500 | 1 to 10 | < 10 | – | −8
15 | Cc1c(F)cccc1S(=O)(=O)Nc1ccc(F)c(Nc2ncnc3sc(-n4nc(C(=O)N(C)CCN(C)C)c5ccccc54)nc23)c1F [Example 39] | < 500 | < 1 | < 10 | – | −12
16 | Cc1c(F)cccc1S(=O)(=O)Nc1ccc(F)c(Nc2ncnc3sc(-n4cnc5ccccc54)nc23)c1F [Example 7] | < 500 | 1 to 10 | < 10 | – | −5
17 | CN(Cc1ccncc1)C(=O)c1cn(-c2nc3c(Nc4c(F)ccc(NS(=O)(=O)c5cccc(Cl)c5Cl)c4F)ncnc3s2)c2ccccc12 [Example 45] | < 500 | < 1 | < 10 | – | −4
18 | O=S(=O)(Nc1ccc(F)c(Nc2ncnc3sc(-n4cnc5c(-c6cccnc6)cccc54)nc23)c1F)c1cccc(Cl)c1Cl [Example 9] | 500 to 1000 | 1 to 10 | < 10 | – | −9
19 | CC1COCCN1S(=O)(=O)c1cn(-c2nc3c(Nc4c(F)ccc(NS(=O)(=O)c5cccc(Cl)c5Cl)c4F)ncnc3s2)c2ccccc12 (centres unmarked) [Example 69] | 500 to 1000 | > 10 | 10 to 50 | – | −7

More lines, main results first:

Row | IC50 [1] [nM] | IC50 [2] [nM] | IC50 [3] [nM] | IC50 ([1]; Homo sapiens, HCT-116) [nM] | Compound | HCT116 pERK (Ymin %) [1] [%]
20 | < 500 | 1 to 10 | 10 to 50 | – | O=S(=O)(Nc1ccc(F)c(Nc2ncnc3sc(-n4cnc5c(N6CCC(F)(CO)CC6)cccc54)nc23)c1F)c1cccc(Cl)c1Cl [Example 142] | 0
21 | < 500 | 1 to 10 | 10 to 50 | – | CCOc1cccc2c1ccn2-c1nc2c(Nc3c(F)ccc(NS(=O)(=O)c4cccc(Cl)c4Cl)c3F)ncnc2s1 [Example 108] | −10
22 | < 500 | 1 to 10 | < 10 | – | O=S(=O)(Nc1ccc(F)c(Nc2ncnc3sc(-n4cnc5c(N6CCC(O)CC6)cccc54)nc23)c1F)c1cccc(Cl)c1Cl [Example 144] | −4
23 | – | 1 to 10 | 10 to 50 | < 500 | CC1(O)CCN(c2cccc3c2ncn3-c2nc3c(Nc4c(F)ccc(NS(=O)(=O)c5cccc(Cl)c5Cl)c4F)ncnc3s2)CC1 [Example 113] | –
24 | < 500 | > 10 | > 50 | – | CC1(CO)CCN(c2cccc3c2ncn3-c2nc3c(Nc4c(F)ccc(NS(=O)(=O)c5cccc(Cl)c5Cl)c4F)ncnc3s2)CC1 [Example 138] | −14
25 | < 500 | 1 to 10 | < 10 | – | O=C(c1cn(-c2nc3c(Nc4c(F)ccc(NS(=O)(=O)c5cccc(Cl)c5Cl)c4F)ncnc3s2)c2ccc(F)cc12)N1C2CCC1COC2 [Example 102] | 0
26 | 500 to 1000 | 1 to 10 | 10 to 50 | – | CN(CCN1CCOCC1)S(=O)(=O)c1cn(-c2nc3c(Nc4c(F)ccc(NS(=O)(=O)c5cccc(Cl)c5Cl)c4F)ncnc3s2)c2ccccc12 [Example 83] | −10
27 | < 500 | 1 to 10 | 10 to 50 | – | O=C1CCCC12CCN(c1cccc3c1ncn3-c1nc3c(Nc4c(F)ccc(NS(=O)(=O)c5cccc(Cl)c5Cl)c4F)ncnc3s1)CC2 [Example 151] | −2
28 | < 500 | < 1 | < 10 | – | O=S(=O)(Nc1ccc(F)c(Nc2ncnc3sc(-n4cnc5c(N6CCOC(CO)C6)cccc54)nc23)c1F)c1cccc(Cl)c1Cl (centres unmarked) [Example 141] | 2
29 | – | 1 to 10 | 10 to 50 | < 500 | O=C1CCCN1c1cn(-c2nc3c(Nc4c(F)ccc(NS(=O)(=O)c5cccc(Cl)c5Cl)c4F)ncnc3s2)c2ccccc12 [Example 110, 2,3-dichloro-N-[2,4-difluoro-3-[[2-[3-(2-oxopyrrolidin-1-yl)indol-1-yl]thiazolo[5,4-d]pyrimidin-7-yl]amino]phenyl]benzenesulfonamide] | –
30 | < 500 | 1 to 10 | 10 to 50 | – | O=S(=O)(Nc1ccc(F)c(Nc2ncnc3sc(-n4cnc5c(N6CCC[C@@H](O)C6)cccc54)nc23)c1F)c1cccc(Cl)c1Cl [Example 148] | −2
31 | 1000 to 10000 | > 10 | 10 to 50 | – | CC1(O)CCCN(c2cccc3c2ncn3-c2nc3c(Nc4c(F)ccc(NS(=O)(=O)c5cccc(Cl)c5Cl)c4F)ncnc3s2)CC1 (centres unmarked) [Example 150] | −5
32 | < 500 | 1 to 10 | 10 to 50 | – | COC1CCN(c2cccc3c2ncn3-c2nc3c(Nc4c(F)ccc(NS(=O)(=O)c5cccc(Cl)c5Cl)c4F)ncnc3s2)CC1 [Example 139] | −13
33 | < 500 | < 1 | < 10 | – | O=S(=O)(Nc1ccc(F)c(Nc2ncnc3sc(-n4cnc5c(CCO)cccc54)nc23)c1F)c1cccc(Cl)c1Cl [Example 126] | −9
34 | < 500 | 1 to 10 | > 50 | – | O=S(=O)(Nc1ccc(F)c(Nc2ncnc3sc(-n4cnc5c(N6C7CCC6CC(O)C7)cccc54)nc23)c1F)c1cccc(Cl)c1Cl (centres unmarked) [Example 129] | 0
35 | < 500 | 1 to 10 | < 10 | – | CCC1(O)CN(C(=O)c2cn(-c3nc4c(Nc5c(F)ccc(NS(=O)(=O)c6cccc(Cl)c6Cl)c5F)ncnc4s3)c3ccccc23)C1 [Example 95] | −6
36 | – | > 10 | 10 to 50 | 500 to 1000 | COCCC(=O)c1cn(-c2nc3c(Nc4c(F)ccc(NS(=O)(=O)c5cccc(Cl)c5Cl)c4F)ncnc3s2)c2ccccc12 [Example 106] | –
